# Results from ChEMBL document CHEMBL1255189, “Structural basis for binding of cyclic 2-oxoglutarate analogues to factor-inhibiting hypoxia-inducible factor” (Bioorg Med Chem Lett, 2010).
# Calls of active or inactive are those of the source. The calls are words filed in the database; no cut-off is given here.
# Columns and labels:
# [1] = target: Egl nine homolog 1 (Homo sapiens) (UniProt Q9GZT9); assay: Inhibition of PHD2 at 1 mM by HTRF assay
# Prolyl hydroxylase EGLN2 = Prolyl hydroxylase EGLN2 (Homo sapiens, UniProt Q96KS0); assay: Inhibition of PHD1 by HTRF assay
# [2] = Inhibition of FIH by HTRF assay
# Chain of Prolyl hydroxylase EGLN2 (Q96KS0 whole entry): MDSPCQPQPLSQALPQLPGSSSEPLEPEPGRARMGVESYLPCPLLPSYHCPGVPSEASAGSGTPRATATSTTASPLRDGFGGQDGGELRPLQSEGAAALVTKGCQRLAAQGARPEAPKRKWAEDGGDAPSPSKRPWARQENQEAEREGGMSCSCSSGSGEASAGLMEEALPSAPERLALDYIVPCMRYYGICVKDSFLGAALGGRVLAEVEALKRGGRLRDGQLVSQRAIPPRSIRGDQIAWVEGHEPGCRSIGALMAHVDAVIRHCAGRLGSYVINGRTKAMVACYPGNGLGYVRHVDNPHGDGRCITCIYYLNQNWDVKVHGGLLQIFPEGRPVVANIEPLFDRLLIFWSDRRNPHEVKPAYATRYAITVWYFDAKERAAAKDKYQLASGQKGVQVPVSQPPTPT
# Chain of Egl nine homolog 1 (Homo sapiens) (Q9GZT9 2-426 limits assumed): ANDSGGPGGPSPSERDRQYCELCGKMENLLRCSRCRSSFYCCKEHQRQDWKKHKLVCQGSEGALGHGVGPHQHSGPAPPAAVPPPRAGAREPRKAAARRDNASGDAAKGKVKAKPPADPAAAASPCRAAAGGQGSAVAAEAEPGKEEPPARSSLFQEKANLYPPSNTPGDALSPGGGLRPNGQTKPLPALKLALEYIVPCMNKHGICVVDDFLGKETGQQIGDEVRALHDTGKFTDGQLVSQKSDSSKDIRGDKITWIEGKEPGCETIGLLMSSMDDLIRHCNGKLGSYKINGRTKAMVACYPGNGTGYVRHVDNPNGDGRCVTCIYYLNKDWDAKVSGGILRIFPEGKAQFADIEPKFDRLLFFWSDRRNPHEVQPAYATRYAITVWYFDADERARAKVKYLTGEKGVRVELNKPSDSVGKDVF
SMILES,inhibition [1],IC50 (Prolyl hydroxylase EGLN2) [µM],inhibition [2]
O=C(NO)c1cccc(O)c1,inactive,–,–
O=C(O)CNC(=O)c1ccccn1,inactive,> 1000,–
O=C(O)CNC(=O)c1ccccc1O [SALICYLURIC ACID],–,> 1000,–

# Further lines, results first:
inhibition [1],IC50 (Prolyl hydroxylase EGLN2) [µM],inhibition [2],SMILES
inactive,> 1000,–,O=C(O)C(=O)c1cccc(O)c1
inactive,91.1,–,O=C(O)CNC(=O)c1ncccc1O
inactive,625,Active,O=C(O)c1ccnc(C(=O)O)c1
inactive,500,–,O=C(O)C(S)c1cccc(O)c1 (stereo not drawn)
